Consider 2 compounds from PMC10362580, “Patient-derived organoids for precision oncology: a platform to facilitate clinical decision making” (BMC Cancer, 2023).

Molecules are shown by their SMILES.

Data set [1] has as its system Normal Organoid from normal adjacent tissue of ovarian cancer patients. The data set can be described thus: PDO drug sensitivity and resistance testing (CellTiter-Glo), ovarian normal adjacent tissue organoids. It counts as cell-based. To be noted: Homo sapiens. The procedure: (§1) Patient-derived tumor organoid was dissociated to single cells after seven days in culture. Epithelial Cells (from tumor and adjacent normal tissues) in combination with patient-derived isogenic adipose-derived Mesenchymal Stem Cells: iECs: MSCs (3:1:1) were seeded at a density of 5000 cells per well in 96-well clear bottom microplates. Multicellular organoids were allowed to grow for seven days. Breast and ovarian organoids were imaged every day and fed every alternate day with aforementioned Breast organoid medium and Ovarian organoid medium respectively. […] Organoids were subsequently incubated for […]; DMSO only- vehicle control and media only- negative control was used to set the baseline. After 0, 1, 7, 14 and 21 days ATP levels were measured with the CellTiter-Glo (Promega, Wisconsin, USA). All screenings were performed in triplicates. Data were analyzed using GraphPad Prism 6. Drug dose–response curves were visualized using […] analysis [setting: log (inhibitor) versus response, least-squares (ordinary) fit; top constraint 100%]. Concentrations where 50% cell viability (IC50-value) was reached were interpolated. The area under the curve (AUC) was approximated between the lowest and highest concentrations screened in the actual assay with the trapezoid rule for numerical integration. The dose–response curves were plotted as the percentage of the cell viability against the logarithm of drug concentrations in µM and were fitted to estimate the IC50.
(§2) We developed a protocol to culture and expand organoids from tissues collected from ovarian cancer patients. […] We performed drug sensitivity and resistance test (DSRT) using 2 FDA-approved commonly used therapeutic drugs paclitaxel and doxorubicin. Depending on the properties of the individual drugs, the concentrations ranged from 0.001 µM to 1000 µM (Fig. 6).
(§3) Following seven days incubation, organoid cultures were manually inspected using a phase-contrast microscope to check cell health and morphology prior to the addition of drugs. CellTiter-Glo® 2.0 determines the number of viable cells in a well, based on the quantification of ATP present, an indicator of metabolically viable cells. Total cell count was measured by CellTiter-Glo® 2.0, which causes cell lysis and produces a luminescence signal proportional to the amount of ATP present. Following completion of the above quality metrics, the data was normalized or the raw intensity data was used for curve-fitting. • Data normalization: Normalization was completed using the following calculation: (Raw intensity signal- Mean of positive control/ Mean of negative control-Mean positive control)

Data set [2] has as its system patient-derived breast cancer organoids (Tumor Organoid). The data set can be described thus: PDO drug sensitivity and resistance testing (CellTiter-Glo), breast tumor organoids. It counts as cell-based, human. To be noted: for IC50: Homo sapiens. The procedure: as §1
(§4) We investigated BC organoids in response to standard medications in order to assess their potential as in vitro disease models. Towards this, PDOs were treated with doxorubicin and paclitaxel (commonly used chemotherapeutic drugs).
as §3
On the technique in general: ATP-based viability assays read luminescence as a measure of living cells.

Data set [3] has as its system Normal Organoid from normal adjacent tissue of breast cancer patients. The data set is described as follows: PDO drug sensitivity and resistance testing (CellTiter-Glo), breast normal adjacent tissue organoids. The format is cell-based. The note with it: Homo sapiens. The procedure: as §1, §4, §3
Data set [4] has as its system patient-derived primary ovarian cancer organoids (Tumor Organoid). The data set is described as follows: PDO drug sensitivity and resistance testing (CellTiter-Glo), ovarian tumor organoids. The format is cell-based, human. The note with it: for IC50: Homo sapiens. The procedure: as §1, §2, §3
For data set [5], the system named is iPSCs-derived forebrain motor neurons. The data set can be described thus: Neurite outgrowth assay (neurotoxicity). To be noted: 1 µM; neurons from healthy donor, breast cancer and ovarian cancer patient.
Procedure: Neurite outgrowth assay was performed to determine neurotoxicity. […] We tested neurotoxic chemotherapeutic drug on iPSC-derived neurons- control (healthy donor), breast cancer and ovarian cancer patients [46–48] using ImageXpress® Nano Automated Imaging System (Molecular Devices).
For data set [6], the system named is iPSCs-derived hepatocytes. The data set can be described thus: Cytoskeleton disruption in hepatocytes (hepatotoxicity). The note with it: 0.1 ug/ml; hepatocytes from healthy donors, breast cancer and ovarian cancer patients. The format is cell-based, human. The procedure: To initiate hepatic differentiation, 10, 000 cells/cm^2 of passage 11 (P11) single cell suspension of iPSCs were seeded on matrigel coated plates in mTeSR™1 media and incubated overnight to obtain 95% confluent culture. Once cells reached > 95% confluence, RPMI media (Gibco) + 2% B27 supplement (Gibco) + 100 ng/ml Activin A (Gibco) + 3 µM CHIR99021 (Stem Cell Technologies) + 2% Matrigel (Corning) was added. Day 1 to 4: RPMI (Gibco) media + 2% B27 supplement (Gibco) + 100 ng/ml Activin A (Sigma). Day 5 to 10: RPMI (Gibco) media + 2% B27 supplement (Gibco) + 10 ng/ml bFGF (Sigma) + 20 ng/ml BMP4 (Sigma) + 0.5% DMSO (Sigma); Day 11 to 15: RPMI 1648 (Gibco) media + 2% B27 supplement (Gibco) + 20 ng/ml HGF (Sigma) + 0.5% DMSO (Sigma); Day 16 to 21: RPMI 1648 (Gibco) media + 2% B27 supplement (Gibco) + 20 ng/ml Oncostatin M (Gibco) + 100 nM Dexamethasone + 20 ng/ml HGF (Sigma) + 0.5% DMSO (Sigma). […] The presence of intracellular glycogen in hepatocytes was assessed by periodic acid–Schiff’s (PAS) staining and nuclei were counterstained with Mayer’s haematoxylin [42]. […]

One may read the IC50 as the concentration that inhibits the measured activity by half. As for `CC(=O)O[C@H]1C(=O)[C@@]2(C)[C@H]([C@H](OC(=O)c3ccccc3)[C@]3(O)C[C@H](OC(=O)[C@H](O)[C@@H](NC(=O)c4ccccc4)c4ccccc4)C(C)=C1C3(C)C)[C@]1(OC(C)=O)CO[C@@H]1C[C@@H]2O` [Paclitaxel], the half-inhibitory concentration (IC50) was determined as 22.7 µM in data set [1] (168 h, Ovarian Cancer Sample 1, Normal Organoid, day 7, CTG); 1240 µM in data set [1] (168 h, Ovarian Cancer Sample 2, Normal Organoid, day 7, CTG); 2120 µM in data set [1] (168 h, Ovarian Cancer Sample 3, Normal Organoid, day 7, CTG); 0.625 µM in data set [1] (336 h, Ovarian Cancer Sample 1, Normal Organoid, day 14, CTG); 76.7 µM in data set [1] (336 h, Ovarian Cancer Sample 2, Normal Organoid, day 14, CTG); 1010 µM in data set [1] (336 h, Ovarian Cancer Sample 3, Normal Organoid, day 14, CTG). Moreover, the IC50 in data set [1] (504 h, Ovarian Cancer Sample 1, Normal Organoid, day 21, CTG) stood at 0.617 µM; in data set [1] (504 h, Ovarian Cancer Sample 2, Normal Organoid, day 21, CTG), 89 µM; in data set [1] (504 h, Ovarian Cancer Sample 3, Normal Organoid, day 21, CTG), 97.6 µM; in data set [2] (168 h, Breast Cancer Sample 1, Tumor Organoid, day 7, CTG), 83.6 µM; in data set [2] (168 h, Breast Cancer Sample 2, Tumor Organoid, day 7, CTG), 874 µM; in data set [2] (168 h, Breast Cancer Sample 3, Tumor Organoid, day 7, CTG) it was 849 µM. Moreover, the IC50 in data set [2] (336 h, Breast Cancer Sample 1, Tumor Organoid, day 14, CTG) worked out at 96.4 µM; in data set [2] (336 h, Breast Cancer Sample 2, Tumor Organoid, day 14, CTG), 103 µM; in data set [2] (336 h, Breast Cancer Sample 3, Tumor Organoid, day 14, CTG), 975 µM; in data set [2] (504 h, Breast Cancer Sample 1, Tumor Organoid, day 21, CTG), 94.9 µM; in data set [2] (504 h, Breast Cancer Sample 2, Tumor Organoid, day 21, CTG), 107 µM; in data set [2] (504 h, Breast Cancer Sample 3, Tumor Organoid, day 21, CTG), 8.95 µM. For the same compound, the IC50 in data set [3] (168 h, Breast Cancer Sample 1, Normal Organoid, day 7, CTG) stood at 7.89 µM; in data set [3] (168 h, Breast Cancer Sample 2, Normal Organoid, day 7, CTG), 947 µM; in data set [3] (168 h, Breast Cancer Sample 3, Normal Organoid, day 7, CTG), 95.1 µM; in data set [3] (336 h, Breast Cancer Sample 1, Normal Organoid, day 14, CTG) it was 8.53 µM; in data set [3] (336 h, Breast Cancer Sample 2, Normal Organoid, day 14, CTG), 980 µM; in data set [3] (336 h, Breast Cancer Sample 3, Normal Organoid, day 14, CTG), 100 µM. In addition, the IC50 in data set [3] (504 h, Breast Cancer Sample 1, Normal Organoid, day 21, CTG) was found to be 0.955 µM; in data set [3] (504 h, Breast Cancer Sample 2, Normal Organoid, day 21, CTG) it was 1000 µM; in data set [3] (504 h, Breast Cancer Sample 3, Normal Organoid, day 21, CTG), 10.2 µM; in data set [4] (168 h, Ovarian Cancer Sample 1, Tumor Organoid, day 7, CTG), 16.7 µM; in data set [4] (168 h, Ovarian Cancer Sample 2, Tumor Organoid, day 7, CTG) it was 940 µM; in data set [4] (168 h, Ovarian Cancer Sample 3, Tumor Organoid, day 7, CTG), 2020 µM. The IC50 in data set [4] (336 h, Ovarian Cancer Sample 1, Tumor Organoid, day 14, CTG) was 20 µM; in data set [4] (336 h, Ovarian Cancer Sample 2, Tumor Organoid, day 14, CTG) it was 96 µM; in data set [4] (336 h, Ovarian Cancer Sample 3, Tumor Organoid, day 14, CTG), 945 µM; in data set [4] (504 h, Ovarian Cancer Sample 1, Tumor Organoid, day 21, CTG), 0.588 µM; in data set [4] (504 h, Ovarian Cancer Sample 2, Tumor Organoid, day 21, CTG), 9.74 µM; in data set [4] (504 h, Ovarian Cancer Sample 3, Tumor Organoid, day 21, CTG), 97.6 µM. Moreover, the “Viability of organoids (CTG assay)” value in data set [2] (breast cancer organoids) and in data set [4] (ovarian cancer organoids) was “significantly decreased the viability of organoids” in each case. Also, in data set [2] (few breast cancer PDOs), the “Response of breast cancer PDOs to treatment” value is “sensitive”. The “Neurite outgrowth sensitivity, donor comparison” value in data set [5] was “Ovarian cancer patient’s neurons were found more sensitive to paclitaxel followed by breast cancer patient and healthy donor”.
With `C/C1=C/C(=O)O[C@@H]2C[C@@H](CC[C@H](C)/C=C\C=C\CC1)O[C@@](O)([C@@H]1CSC(=O)N1)C2` [Latrunculin a], the “Cytoskeleton disruption sensitivity, donor comparison” value in data set [6] is “Ovarian cancer patient’s hepatocytes were found more sensitive to Latrunculin followed by breast cancer patient and healthy donor”.
